Measured values from PubChem BioAssay AID330 (DTP/NCI, 2004).
“And” between values parts separate entries of the source, which are not always exact repeats. Equal entries are not always repeated. Toxic doses and inconclusive results are not listed. How the source made its calls: active means survival T/C of 150% or more; inactive means T/C below 125% in these data.

System: P388 leukemia ip, CD2F1 mice, survival T/C
Test: NCI In Vivo Anticancer Drug Screen. Data for tumor model P388 Leukemia (intraperitoneal) in CD2F1 (CDF1) mice
Conditions: endpoint: median survival time, higher = longer survival
Outline: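 Mice carrying the transplanted tumor received test compound or vehicle. Survival was recorded in each group, and the value is the treated-group measurement divided by that of the vehicle-treated control group.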

[1] = dose: 100.0 mg/kg/injection, schedule: Q04DX003 (ip), vehicle: saline with Tween-80
[2] = dose: 200.0 mg/kg/injection, schedule: Q04DX003 (ip), vehicle: saline with Tween-80
[3] = dose: 400.0 mg/kg/injection, schedule: Q04DX003 (ip), vehicle: saline with Tween-80
[4] = dose: 50.0 mg/kg/injection, schedule: Q01DX005 (ip), vehicle: saline with Tween-80
[5] = dose: 100.0 mg/kg/injection, schedule: Q01DX005 (ip), vehicle: saline with Tween-80
[6] = dose: 200.0 mg/kg/injection, schedule: Q01DX005 (ip), vehicle: saline with Tween-80
[7] = dose: 50.0 mg/kg/injection, schedule: Q01DX005 (ip), vehicle: saline
[8] = dose: 100.0 mg/kg/injection, schedule: Q04DX002 (ip), vehicle: saline with Tween-80
[9] = dose: 200.0 mg/kg/injection, schedule: Q04DX002 (ip), vehicle: saline with Tween-80
[10] = dose: 400.0 mg/kg/injection, schedule: Q04DX002 (ip), vehicle: saline with Tween-80
[11] = dose: 60.0 mg/kg/injection, schedule: Q01DX005 (ip), vehicle: saline with Tween-80
[12] = dose: 120.0 mg/kg/injection, schedule: Q01DX005 (ip), vehicle: saline with Tween-80
[13] = dose: 240.0 mg/kg/injection, schedule: Q01DX005 (ip), vehicle: saline with Tween-80
[14] = dose: 12.5 mg/kg/injection, schedule: Q01DX009 (ip), vehicle: saline with Tween-80
[15] = dose: 25.0 mg/kg/injection, schedule: Q01DX009 (ip), vehicle: saline with Tween-80

Measured: T/C

NC(=O)NC1CCCC1
inactive: [1] 100 % of control | [2] 100 % of control | [3] 100 % of control

Nc1nnnn1-n1cccc1
inactive: [4] 103 % of control | [5] 103 % of control | [6] 103 % of control

C/C(=N\NC(=S)N1CCN(c2ccccn2)CC1)c1ncccn1
inactive: dose: 3.13 mg/kg/injection, schedule: Q01DX005 (ip), vehicle: saline with Tween-80 115 % of control | dose: 6.25 mg/kg/injection, schedule: Q01DX005 (ip), vehicle: saline with Tween-80 122 % of control and 123 % of control | dose: 12.5 mg/kg/injection, schedule: Q01DX005 (ip), vehicle: saline with Tween-80 95 % of control

C[S+](C)CC[N+](C)(C)C
inactive: dose: 12.5 mg/kg/injection, schedule: Q01DX009 (ip), vehicle: water 104 % of control | dose: 25.0 mg/kg/injection, schedule: Q01DX009 (ip), vehicle: water 108 % of control | dose: 50.0 mg/kg/injection, schedule: Q01DX009 (ip), vehicle: water 110 % of control

CCN(CC)CCNC(=O)c1nn(-c2ccccc2)c2c1CCCc1ccccc1-2
inactive: dose: 25.0 mg/kg/injection, schedule: Q04DX003 (ip), vehicle: Klucel (hydroxypropylcellulose) (HPC) 101 % of control | dose: 50.0 mg/kg/injection, schedule: Q04DX003 (ip), vehicle: Klucel (hydroxypropylcellulose) (HPC) 101 % of control | dose: 100.0 mg/kg/injection, schedule: Q04DX003 (ip), vehicle: Klucel (hydroxypropylcellulose) (HPC) 99 % of control and 92 % of control

CC1(C)CC(=O)[C@H]2SCC(=O)CC21 (some centres not stated)
inactive: [4] 86 % of control | [5] 99 % of control

O/N=C/c1ccc(Cl)cc1Cl
inactive: dose: 25.0 mg/kg/injection, schedule: Q01DX005 (ip), vehicle: saline with Tween-80 98 % of control | [4] 107 % of control | [5] 92 % of control | [6] 96 % of control

CCOC(=O)/C(C#N)=C/c1ccc(OC)c(OC)c1
inactive: dose: 50.0 mg/kg/injection, schedule: Q01DX005 (ip), vehicle: Klucel (hydroxypropylcellulose) (HPC) 99 % of control | dose: 100.0 mg/kg/injection, schedule: Q01DX005 (ip), vehicle: Klucel (hydroxypropylcellulose) (HPC) 108 % of control | dose: 200.0 mg/kg/injection, schedule: Q01DX005 (ip), vehicle: Klucel (hydroxypropylcellulose) (HPC) 100 % of control

O=C(Nc1ccc(Nc2ccncc2)cc1)c1ccc([N+](=O)[O-])cc1
inactive: dose: 100.0 mg/kg/injection, schedule: Q01DX009 (ip), vehicle: Klucel (hydroxypropylcellulose) (HPC) 90 % of control | dose: 200.0 mg/kg/injection, schedule: Q01DX009 (ip), vehicle: Klucel (hydroxypropylcellulose) (HPC) 100 % of control | dose: 400.0 mg/kg/injection, schedule: Q01DX009 (ip), vehicle: Klucel (hydroxypropylcellulose) (HPC) 90 % of control

c1cc2cc(C3=NCCN3)[nH]c2cc1C1=NCCN1
inactive: dose: 12.5 mg/kg/injection, schedule: Q01DX005 (ip), vehicle: saline 98 % of control | dose: 25.0 mg/kg/injection, schedule: Q01DX005 (ip), vehicle: saline 103 % of control | [7] 99 % of control

O=c1[nH]oc2c1CCNC2
inactive: dose: 100.0 mg/kg/injection, schedule: Q04DX003 (ip), vehicle: saline 98 % of control | dose: 200.0 mg/kg/injection, schedule: Q04DX003 (ip), vehicle: saline 103 % of control

C=C(C)C12OC3(CCCCCCCCC)OC1C1C4OC4(CO)C(O)C4(O)C(=O)C(C)=CC4C1(O3)C(C)C2OC(C)=O (configuration not stated)
inactive: dose: 12.5 micrograms/kg/injection, schedule: Q01DX009 (ip), vehicle: saline + alcohol 101 % of control | dose: 25.0 micrograms/kg/injection, schedule: Q01DX009 (ip), vehicle: saline + alcohol 104 % of control | dose: 50.0 micrograms/kg/injection, schedule: Q01DX009 (ip), vehicle: saline + alcohol 104 % of control | dose: 100.0 micrograms/kg/injection, schedule: Q01DX009 (ip), vehicle: saline + alcohol 104 % of control | dose: 200.0 micrograms/kg/injection, schedule: Q01DX009 (ip), vehicle: saline + alcohol 123 % of control

COc1ccc2c(N)c3cccc[n+]3cc2c1OC
inactive: dose: 6.25 mg/kg/injection, schedule: Q04DX003 (ip), vehicle: water 106 % of control and 108 % of control | dose: 12.5 mg/kg/injection, schedule: Q04DX003 (ip), vehicle: water 116 % of control and 121 % of control | dose: 25.0 mg/kg/injection, schedule: Q04DX003 (ip), vehicle: water 118 % of control and 122 % of control | dose: 50.0 mg/kg/injection, schedule: Q04DX003 (ip), vehicle: water 103 % of control

Cc1csc(C)[n+]1C
inactive: dose: 25.0 mg/kg/injection, schedule: Q01DX009 (ip), vehicle: saline sonified 100 % of control | dose: 50.0 mg/kg/injection, schedule: Q01DX009 (ip), vehicle: saline sonified 100 % of control | dose: 100.0 mg/kg/injection, schedule: Q01DX009 (ip), vehicle: saline sonified 90 % of control

Cc1ccccc1NC(CCl)=NC(C)(C)C
inactive: [1] 98 % of control | [2] 107 % of control | [3] 104 % of control

CCN(CC)CCCNC(=O)Cc1ccc2c(c1)C(=O)c1ccccc1C2=O
inactive: dose: 25.0 mg/kg/injection, schedule: Q01DX005 (ip), vehicle: water 106 % of control | dose: 50.0 mg/kg/injection, schedule: Q01DX005 (ip), vehicle: water 108 % of control | dose: 100.0 mg/kg/injection, schedule: Q04DX002 (ip), vehicle: water 97 % of control

CC1(CN2CCCC2)CCC(NC(=O)C(c2ccccc2)c2ccccc2)C(C)(C)O1 (configuration not stated)
inactive: dose: 25.0 mg/kg/injection, schedule: Q01DX001 (ip), vehicle: saline with Tween-80 107 % of control | dose: 50.0 mg/kg/injection, schedule: Q01DX001 (ip), vehicle: saline with Tween-80 104 % of control

CCOC(=O)C1C(=O)N2C(=O)C(NC(C)=O)=C(O)C2C1c1ccc(OC)cc1 (configuration not stated)
inactive: [8] 100 % of control | [9] 100 % of control | [10] 98 % of control

CCOC(=O)c1cn(C(=O)CCl)c2ccccc2c1=O
inactive: [11] 103 % of control | [12] 100 % of control | [13] 97 % of control

CCN(CC)c1c(C)c(C(=O)OC)nn1-c1ccccc1
inactive: [11] 107 % of control | [12] 104 % of control | [13] 96 % of control

O=C(O)C1CC(O)CN1 (configuration not stated)
inactive: [7] 106 % of control | dose: 100.0 mg/kg/injection, schedule: Q01DX005 (ip), vehicle: saline 106 % of control | dose: 200.0 mg/kg/injection, schedule: Q01DX005 (ip), vehicle: saline 110 % of control

COc1ccc(C2CC(=O)N(CN3CCN(c4ccc(Cl)cc4)CC3)C(=O)C2)cc1
inactive: dose: 6.25 mg/kg/injection, schedule: Q01DX009 (ip), vehicle: saline with Tween-80 94 % of control | [14] 94 % of control | [15] 91 % of control | dose: 200.0 mg/kg/injection, schedule: Q01DX009 (ip), vehicle: saline with Tween-80 92 % of control

Cc1cc(N(C)C)nc2cc(N(C)C)ccc12
inactive: [14] 93 % of control | [15] 103 % of control | dose: 50.0 mg/kg/injection, schedule: Q01DX009 (ip), vehicle: saline with Tween-80 95 % of control and 98 % of control

Cc1cc(OCc2nnc3n2S(=O)(=O)c2ccccc2N3c2ccccc2)ccc1Cl
inactive: [8] 92 % of control | [9] 92 % of control | [10] 87 % of control

O=c1[nH]c(-c2cccnc2)nnc1-c1ccc(Cl)cc1
inactive: [4] 102 % of control | [5] 103 % of control | [6] 96 % of control
